Measurements from patent publication US20070244080A1, “Method for Treatment of Inflammatory Disorders Using Triptolide Compounds” (priority 2004, published 2007).

Tests used:
[1] = tested on: human T cell lymphoma (Jurkat) cells; conditions: relative to native triptolide; cited from earlier work
[2] = tested on: IL-2 production in Jurkat cells; conditions: cited from earlier work
IL-2 [3] = assay: Suppression of cytokine production, PMA/ionomycin-induced Jurkat cells, ELISA; format: cell-based, human; conditions: 8 hr
Method: (§1) Triptolide suppresses in vitro production of proinflammatory cytokines such as IFN-γ, TNF-α, IL-1β and IL-6, as shown in Table 1. To obtain the data, Jurkat cells were stimulated for 8 hr by PMA and ionomycin. Human peripheral blood mononuclear cells (PBMC) from a single donor were incubated for 24 hr with PHA. At the end of the culture period, each supernatant was harvested, and the cytokine content was assayed by ELISA.

IL-8 = conditions: bronchial epithelial cells; cited from earlier work
IL-1β = assay: Suppression of cytokine production, PHA-induced PBMC, ELISA; format: cell-based, human; conditions: 24 hr, single donor
Method: as §1

TNF-α = assay: as above; format: cell-based, human; conditions: 24 hr, single donor
Method: as §1

IL-6 = assay: as above; format: cell-based, human; conditions: 24 hr, single donor
Method: as §1

IFN-γ = assay: as above; format: cell-based, human; conditions: 24 hr, single donor
Method: as §1

IL-2 [4] = assay: as above; format: cell-based, human; conditions: 24 hr, single donor
Method: as §1

[5] = tested on: cytokine genes in activated Jurkat cells; conditions: cited from earlier work
[6] = in vivo; cited from earlier work
[7] = Conversion of triptolide prodrug to triptolide in blood serum (TLC); format: in vitro ADME; conditions: 37° C.
Method: A solution of triptolide succinate in DMSO (25 mg/ml, 0.1 ml) was mixed with 0.5 ml of rat serum. The mixture was incubated at 37° C. Aliquots of the mixture were taken at 1, 3, 5, 15, 45 minutes and 18 hours and analyzed by thin layer chromatography (TLC). The TLC plates were developed in 1:5 CH2Cl2/Et2O. After development, the plates were treated with iodine vapor and examined under a UV lamp. Triptolide and triptolide succinate were used as reference compounds (Rf=0.60 and 0.45, respectively). […] After 15 minutes, the triptolide succinate spot had disappeared (Rf=0.45), and a new spot corresponding to triptolide had appeared (Rf=0.60).

[8] = Phase I clinical trial, tolerability; format: in vivo, human; conditions: 0.675 μg/m^2 by i.v. infusion, weekly intervals
Method: In accordance with the invention, administration of a triptolide compound is expected to inhibit cytokine production, particularly TGF-β production, in a patient suffering from obliterative airway disease, renal fibrosis, diabetic nephropathy, or liver fibrosis, thereby reducing the symptoms of the disease. A range of doses is practical for this treatment. […] This dose calculates to about 20 μg/kg. Treatment in this clinical study is administered at weekly intervals.

CC(C)[C@]12O[C@H]1[C@@H]1O[C@]13[C@]1(O[C@H]1C[C@H]1C4=C(CC[C@@]13C)C(=O)OC4)[C@H]2F [PG763, 14-deoxy-14α-fluoro triptolide]
Cytotoxicity compared with native triptolide [1]: nearly equivalent
IL-2 inhibition activity compared with native triptolide ([2]; relative to native triptolide): nearly equivalent

CC(C)[C@]12O[C@H]1[C@@H]1O[C@]13[C@]1(O[C@H]1C[C@H]1c4c(C(=O)c5ccccc5)oc(OC(=O)c5ccccc5)c4CC[C@@]13C)[C@@H]2O [PG796, 18-deoxo-19-dehydro-18-benzoyloxy-19-benzoyl triptolide]
IL-2 inhibition activity compared with triptolide 14-succinate ([2]; relative to the prodrug triptolide 14-succinate): higher level of activity

triptolide
IC50, suppression of IL-2 production (IL-2 [3]): 1.3 ng/mL
IL-8 mRNA and protein expression (IL-8): suppresses IL-8 expression
IC50, suppression of IL-1β production (IL-1β): 0.45 ng/mL
IC50, suppression of TNF-α production (TNF-α): 0.35 ng/mL
IC50, suppression of IL-6 production (IL-6): 1.5 ng/mL
IC50, suppression of IFN-γ production (IFN-γ): 0.52 ng/mL
IC50, suppression of IL-2 production (IL-2 [4]): 0.38 ng/mL
Expression of cytokine genes (IL-2, IL-3, IL-6, IL-8, IL-13, TNF-α, TGF-β, MIP-1α, MIP-1β, GM-CSF, RANTES) [5]: inhibits the expression of several cytokine genes

triptolide 14-succinate [PG490-88]
Efficacy in animal models of immunosuppression [6]: efficacy in several animal models of immunosuppression
Species detected by TLC after incubation in rat serum ([7]; after 3 minutes): only triptolide succinate was detected
Species detected by TLC after incubation in rat serum ([7]; after 15 minutes): disappeared
Suppression of IL-2 production ([2]; after incubation in plasma): in vitro activity in suppression of IL-2 production

triptolide succinate sodium salt [PG490-88Na]
Tolerability in phase I clinical trial [8]: well tolerated with no drug-related toxicity
